Measured values taken from patent publication US20250147039A1, “Compounds for complexation of rare earth elements and/or s-, p-, d- block metals, their coordination compounds, peptide conjugates, method of their preparation and use thereof” (USTAV ORGANICKE CHEMIE A BIOCHEMIE AV CR V.V.I., priority 2021, published 2025).

Experiments:
[1] = Formation of 1,5-cz-[M(Lig)] from Lig and M^III ions (metal dependent click-zip) (Charts 4, 5); format: physicochemical; details: MOPS/NaOH buffer pH 7.0, TD728, TD827 in 50% i-PrOH; for conversion to 1,5-cz-[M(Lig)], Y^III: TD714 sum of two diastereoisomers
[2] = Formation of 1,5-cz-[Ln(Lig)] from Lig and Ln^III ions (metal dependent click-zip), MOPS/NaOH buffer pH 7.0, analytical HPLC (Charts 1, 2); details: MOPS/NaOH buffer pH 7.0

conversion to 1,5-cz-[M(Lig)], Sc^III ([1]; 1 week at 80° C.) [%]	conversion to 1,5-cz-[M(Lig)], Y^III ([1]; 1 week at 80° C.) [%]	conversion to 1,5-cz-[M(Lig)], Sc^III ([1]; 1 hour at 80° C.) [%]	conversion to 1,5-cz-[M(Lig)], Y^III ([1]; 1 hour at 80° C.) [%]	conversion to 1,5-cz-[Ln(Lig)], Ce^III ([2]; after 1 week at 80° C.) [%]	conversion to 1,5-cz-[Ln(Lig)], Ce^III ([2]; after 1 hour at 80° C.) [%]	conversion to 1,5-cz-[Ln(Lig)], Dy^III ([2]; after 1 week at 80° C.) [%]	conversion to 1,5-cz-[Ln(Lig)], Dy^III ([2]; after 1 hour at 80° C.) [%]	conversion to 1,5-cz-[Ln(Lig)], Er^III ([2]; after 1 week at 80° C.) [%]	conversion to 1,5-cz-[Ln(Lig)], Er^III ([2]; after 1 hour at 80° C.) [%]	conversion to 1,5-cz-[Ln(Lig)], Eu^III ([2]; after 1 week at 80° C.) [%]	conversion to 1,5-cz-[Ln(Lig)], Eu^III ([2]; after 1 hour at 80° C.) [%]	conversion to 1,5-cz-[Ln(Lig)], Gd^III ([2]; after 1 week at 80° C.) [%]	conversion to 1,5-cz-[Ln(Lig)], Gd^III ([2]; after 1 hour at 80° C.) [%]	conversion to 1,5-cz-[Ln(Lig)], Ho^III ([2]; after 1 week at 80° C.) [%]	conversion to 1,5-cz-[Ln(Lig)], Ho^III ([2]; after 1 hour at 80° C.) [%]	conversion to 1,5-cz-[Ln(Lig)], La^III ([2]; after 1 week at 80° C.) [%]	conversion to 1,5-cz-[Ln(Lig)], La^III ([2]; after 1 hour at 80° C.) [%]	conversion to 1,5-cz-[Ln(Lig)], Lu^III ([2]; after 1 week at 80° C.) [%]	conversion to 1,5-cz-[Ln(Lig)], Lu^III ([2]; after 1 hour at 80° C.) [%]	also measured	SMILES
61	80	4	16	4	0	70	10	88	26	28	3	33	3	79	16	4	0	98	63	conversion to 1,5-cz-[Ln(Lig)], Nd^III ([2]; after 1 week at 80° C.): 11%; conversion to 1,5-cz-[Ln(Lig)], Nd^III ([2]; after 1 hour at 80° C.): 1%; conversion to 1,5-cz-[Ln(Lig)], Pr^III ([2]; after 1 week at 80° C.): 10%; conversion to 1,5-cz-[Ln(Lig)], Pr^III ([2]; after 1 hour at 80° C.): 0%; conversion to 1,5-cz-[Ln(Lig)], Sm^III ([2]; after 1 week at 80° C.): 22%; conversion to 1,5-cz-[Ln(Lig)], Sm^III ([2]; after 1 hour at 80° C.): 2%; conversion to 1,5-cz-[Ln(Lig)], Tb^III ([2]; after 1 week at 80° C.): 55%; conversion to 1,5-cz-[Ln(Lig)], Tb^III ([2]; after 1 hour at 80° C.): 6%; conversion to 1,5-cz-[Ln(Lig)], Tm^III ([2]; after 1 week at 80° C.): 94%; conversion to 1,5-cz-[Ln(Lig)], Tm^III ([2]; after 1 hour at 80° C.): 39%; conversion to 1,5-cz-[Ln(Lig)], Yb^III ([2]; after 1 week at 80° C.): 97%; conversion to 1,5-cz-[Ln(Lig)], Yb^III ([2]; after 1 hour at 80° C.): 53%	CC(C)(N)C#Cc1cccc(CN2CCN(CC(=O)O)CCN(Cc3cc(-c4ccccc4)cc(CN=[N+]=[N-])n3)CCN(CC(=O)O)CC2)n1 [TD1054]
4	63	0	1	3	0	51	0	84	1	19	0	23	0	68	1	4	0	94	2	conversion to 1,5-cz-[Ln(Lig)], Nd^III ([2]; after 1 week at 80° C.): 8%; conversion to 1,5-cz-[Ln(Lig)], Nd^III ([2]; after 1 hour at 80° C.): 0%; conversion to 1,5-cz-[Ln(Lig)], Pr^III ([2]; after 1 week at 80° C.): 6%; conversion to 1,5-cz-[Ln(Lig)], Pr^III ([2]; after 1 hour at 80° C.): 0%; conversion to 1,5-cz-[Ln(Lig)], Sm^III ([2]; after 1 week at 80° C.): 16%; conversion to 1,5-cz-[Ln(Lig)], Sm^III ([2]; after 1 hour at 80° C.): 0%; conversion to 1,5-cz-[Ln(Lig)], Tb^III ([2]; after 1 week at 80° C.): 37%; conversion to 1,5-cz-[Ln(Lig)], Tb^III ([2]; after 1 hour at 80° C.): 0%; conversion to 1,5-cz-[Ln(Lig)], Tm^III ([2]; after 1 week at 80° C.): 93%; conversion to 1,5-cz-[Ln(Lig)], Tm^III ([2]; after 1 hour at 80° C.): 1%; conversion to 1,5-cz-[Ln(Lig)], Yb^III ([2]; after 1 week at 80° C.): 95%; conversion to 1,5-cz-[Ln(Lig)], Yb^III ([2]; after 1 hour at 80° C.): 2%	[N-]=[N+]=NCc1cccc(CN2CCN(CC(=O)O)CCN(Cc3cccc(C#Cc4ccccc4)n3)CCN(CC(=O)O)CC2)n1 [TD944]
14	71	3	9	1	0	65	5	91	17	14	1	19	2	82	9	2	0	96	49	conversion to 1,5-cz-[Ln(Lig)], Nd^III ([2]; after 1 week at 80° C.): 4%; conversion to 1,5-cz-[Ln(Lig)], Nd^III ([2]; after 1 hour at 80° C.): 0%; conversion to 1,5-cz-[Ln(Lig)], Pr^III ([2]; after 1 week at 80° C.): 3%; conversion to 1,5-cz-[Ln(Lig)], Pr^III ([2]; after 1 hour at 80° C.): 0%; conversion to 1,5-cz-[Ln(Lig)], Sm^III ([2]; after 1 week at 80° C.): 9%; conversion to 1,5-cz-[Ln(Lig)], Sm^III ([2]; after 1 hour at 80° C.): 1%; conversion to 1,5-cz-[Ln(Lig)], Tb^III ([2]; after 1 week at 80° C.): 54%; conversion to 1,5-cz-[Ln(Lig)], Tb^III ([2]; after 1 hour at 80° C.): 3%; conversion to 1,5-cz-[Ln(Lig)], Tm^III ([2]; after 1 week at 80° C.): 96%; conversion to 1,5-cz-[Ln(Lig)], Tm^III ([2]; after 1 hour at 80° C.): 27%; conversion to 1,5-cz-[Ln(Lig)], Yb^III ([2]; after 1 week at 80° C.): 96%; conversion to 1,5-cz-[Ln(Lig)], Yb^III ([2]; after 1 hour at 80° C.): 38%	[N-]=[N+]=NCc1cc(-c2ccccc2)cc(CN2CCN(CC(=O)O)CCN(Cc3cccc(C#CCN)n3)CCN(CC(=O)O)CC2)n1 [TD722]
23	95	2	22	25	1	94	16	95	37	92	4	91	5	95	24	50	1	95	71	conversion to 1,5-cz-[Ln(Lig)], Nd^III ([2]; after 1 week at 80° C.): 81%; conversion to 1,5-cz-[Ln(Lig)], Nd^III ([2]; after 1 hour at 80° C.): 2%; conversion to 1,5-cz-[Ln(Lig)], Pr^III ([2]; after 1 week at 80° C.): 64%; conversion to 1,5-cz-[Ln(Lig)], Pr^III ([2]; after 1 hour at 80° C.): 1%; conversion to 1,5-cz-[Ln(Lig)], Sm^III ([2]; after 1 week at 80° C.): 92%; conversion to 1,5-cz-[Ln(Lig)], Sm^III ([2]; after 1 hour at 80° C.): 3%; conversion to 1,5-cz-[Ln(Lig)], Tb^III ([2]; after 1 week at 80° C.): 95%; conversion to 1,5-cz-[Ln(Lig)], Tb^III ([2]; after 1 hour at 80° C.): 11%; conversion to 1,5-cz-[Ln(Lig)], Tm^III ([2]; after 1 week at 80° C.): 95%; conversion to 1,5-cz-[Ln(Lig)], Tm^III ([2]; after 1 hour at 80° C.): 52%; conversion to 1,5-cz-[Ln(Lig)], Yb^III ([2]; after 1 week at 80° C.): 95%; conversion to 1,5-cz-[Ln(Lig)], Yb^III ([2]; after 1 hour at 80° C.): 64%	C#Cc1cccc(CN2CCN(CC(=O)O)CCN(Cc3cccc(CN=[N+]=[N-])n3)CCN(CC(=O)O)CC2)n1 [TD556]
